Test system: H3K36me2
Assay: H3K36me2 level by immunoblotting
Assay type: cell-based, human
Settings: 2 μM
Description: NSD2 is the primary methyltransferase that transfers dimethyl to H3K36 in ALL with NSD2 gain-of-function mutation. Therefore, the effects of LLC0424 on H3K36me2 was evaluated in SEM and RPMI-8402 cells. […] Meanwhile, LLC0424 treatment also led to downregulation of H3K36Me2 in RPMI-8402 cells within 24 h (Figure 6B). […] We also conducted a colony formation assay to evaluate the effect of LLC0424 on the stem cell-like property of the leukemia cells. […] As LLC0424 leads to strong degradation of both NSD2-L and NSD2-S, the phenotypic changes upon LLC0424 treatment result from complete inactivation of NSD2 activity, including adaptor-like function of NSD2-S and SET-domain dependent enzymatic function of NSD2-L. The specific contributions of NSD2 isoforms warrant future investigation. To characterize the genes affected by LLC0424 treatment, we performed global transcriptome analysis of SEM cells treated by DMSO, LLC0424, or LLC0424N. LLC0424 treatment led to significant changes in the transcriptome of SEM cells with over 326 differentially expressed genes. […]
After treatment, the cultured cells were collected and rinsed with phosphate-buffered saline (PBS) in room temperature. […] After sonication and centrifugation, the total amount of protein in the cell lysates was measured by Pierce Bovine Serum Albumin Standard Pre-Diluted Set (ThermoFisher Scientific). […]

O=C1CCC(N2C(=O)c3ccc(N4CCC(NC(=O)c5ccc(NC(=O)c6ccc(CN(C(=O)c7ccc8c(c7)OCC(=O)N8)C7CC7)cc6)cc5)CC4)cc3C2=O)C(=O)N1 (centres unmarked) [compound 10l, N-Cyclopropyl-N-(4-((4-((1-(2-(2,6-dioxopiperidin-3-yl)-1,3-dioxoisoindolin-5-yl)piperidin-4-yl)carbamoyl)phenyl)carbamoyl)benzyl)-3-oxo-3,4-dihydro-2H-benzo[b][1,4]oxazine-7-carboxamide]
H3K36Me2 level (RPMI-8402 cells, within 24 h): downregulation | H3K36Me2 level (SEM cells, as long as 8 days): persistent downregulation

From PMC11094793, “Discovery of LLC0424 as a Potent and Selective in Vivo NSD2 PROTAC Degrader” (Journal of Medicinal Chemistry, 2024)
